Columns and labels:
[1] = Appetite suppression: high fat food consumption in fasted rats (4-Hour and 24-Hour Consumption); assay type: in vivo, Sprague-Dawley rats
Text: Appetite Suppression: Three-month-old (300-350 grams) male, Sprague-Dawley rats (individually housed) were used to assess compounds for their appetite suppressant effects. Rats were acclimatized to a “high fat” food diet (BioServ Diet #F3282 or Research Diets #12451) for two weeks prior to testing (access to food and water ad libitum). One day prior to the experiment (at 5:00 PM), food was removed from the cages in order to motivate feeding when the food was returned the following morning (water remained available throughout the experiment). Prior to presentation of the food, rats (n=8-10/dose group) were dosed intraperitoneally (ip) or orally (po) with the compound under investigation, returned to their home cage and immediately given a pre-weighed amount of food. Four hours after administration, the food was removed from the cage, weighed, recorded (4-Hour Consumption) and returned to the rat until the following morning. Twenty-four hours after administration, the remaining food was again weighed and recorded (24-Hour Consumption). Cumulative consumption (expressed in grams) was calculated for both the four and the twenty-four hour intervals. In this assay, vehicle-treated rats typically consume approximately 8 grams over the four-hour interval and approximately 25 grams over the twenty-four-hour interval.
Treatment effects are presented in Table 1 and FIGS. 1-5 (4-Hour Consumption) and Table 2 and FIGS. 6-10 (24-Hour Consumption). The effects are given as both Raw Consumption (in grams ±SEM [1 standard error of the mean]) and as % Reduction in 4-Hour or 24-Hour Consumption=[1-(Consumption following Drug Treatment/Consumption following Vehicle Treatment)]×100%. Similar superscripts in the Dose column of Tables 1 and 2 denote values derived from the same experiment (to facilitate comparisons between individual treatments and co-administrations). Statistical analyses were performed using a 1-way ANOVA (analysis of variance) followed by a Bonferroni multiple comparison test with the overall alpha set at 0.05. In Tables 1 and 2, asterisks (*) denote significant effects compared to vehicle-treated rats, while letters (a or b) denote significant effects compared to rats treated with a single compound (“a” for significance from antidepressant and “b” for significance from telenzepine). In Tables 1 and 2, one symbol denotes p<0.05, two symbols denote p<0.01 and three symbols denote p<0.001). The symbols used for denoting statistical significance may be different in the corresponding figures.

[2] = Reduction in weight gain of rats on a high fat diet (two-week treatment); assay type: in vivo, Sprague-Dawley rats; details: for % Reduction: treatment minus vehicle % weight gain
Experimental: Reduction in Weight Gain: Three- to four-month-old (475-550 grams) male, Sprague-Dawley rats (individually housed) were used to assess compounds for their ability to prevent weight gain. At the onset of chronic experiments, rats had been maintained (ad libitum access) on a “high fat” diet (BioServ Diet #F3282 or Research Diets #12451) for approximately one month. Individual body weights and water consumptions were recorded three times per week throughout the duration of the experiment. After approximately two weeks of data collection, rats were counter-balanced to produce treatment groups with equivalent mean body weights. Under isofluorane-induced anesthesia, rats were surgically implanted (subscapular, subcutaneous [sc] placement) with osmotic mini-pumps (Alzet 2mL2) containing the appropriate drug concentration (based on mean body weights and calculated durations of delivery). Alternatively, for studies using the oral route of administration, rats were dosed by gavage daily over 14 days at a volume of 3 mL/kg. Data collection was continued under drug treatment for approximately two more weeks. Change in body weight (expressed in grams) was calculated for the treatment interval. In this assay, vehicle-treated rats typically gain approximately 35-40 grams (+9%) over the two-week interval. Treatment effects are presented in Table 3 as % Weight Gain=[(Body Weight at End of Drug Infusion−Baseline Body Weight)/Baseline Body Weight]×100%, for both Vehicle and Treatment groups; as well as % Reduction=(% Weight Gain for Treatment group−% Weight Gain for Vehicle group). Body weights throughout the treatment period are presented in FIGS. 11-15 as the percentage of baseline body weight. Similar superscripts in the Dose column of Table 3 denote values derived from the same experiment (to facilitate comparisons between individual treatments and co-administrations). Statistical analyses were performed using a 1-way ANOVA (analysis of variance) followed by a Bonferroni multiple comparison test with the overall alpha set at 0.05. In Table 3, asterisks (*) denote significant effects compared to vehicle-treated rats, while letters (a or b) denote significant effects compared to rats treated with a single compound (“a” for significance from antidepressant and “b” for significance from telenzepine). In Table 3, one symbol denotes p<0.05, two symbols denote p<0.01 and three symbols denote p<0.001). The symbols used for denoting statistical significance may be different in the corresponding figures.

[3] = directly injected into the midbrain; cited from earlier work
[4] = 24 h, 10 mg/kg ip, experiment e
[5] = 24 h, 10 mg/kg po, experiment c
[6] = 24 h, 30 mg/kg po, experiment c

Cc1scc2c1N(C(=O)CN1CCN(C)CC1)c1ccccc1NC2=O [Telenzepine, 4,9-Dihydro-3-methyl-4-[(4-methyl-1-piperazinyl)acetyl]-10H-thieno[3,4-b][1,5]benzodiazepin-10-one]
% Reduction in Consumption ([1]; 4 h, 1 mg/kg ip, experiment b): 43%
Treatment Consumption ([1]; 4 h, 1 mg/kg ip, experiment b): 4.0 ± 0.50 g/4 Hrs
% Reduction in Consumption ([1]; 4 h, 1 mg/kg ip, experiment e): 38%
Treatment Consumption ([1]; 4 h, 1 mg/kg ip, experiment e): 5.7 ± 0.63 g/4 Hrs
Treatment Consumption ([1]; 4 h, 3 mg/kg ip, experiment a): 4.2 ± 0.36 g/4 Hrs
% Reduction in Consumption ([1]; 4 h, 3 mg/kg ip, experiment a, 3 mg/kg): 45%
% Reduction in Consumption ([1]; 4 h, 3 mg/kg ip, experiment a, listed as telenzepine, 3 mg/kg): 45%
Treatment Consumption ([1]; 4 h, 3 mg/kg ip, experiment b): 4.5 ± 0.40 g/4 Hrs
% Reduction in Consumption ([1]; 4 h, 3 mg/kg ip, experiment b, 3 mg/kg): 35%
% Reduction in Consumption ([1]; 4 h, 3 mg/kg ip, experiment b, listed as telenzepine, 3 mg/kg): 35%
% Reduction in Consumption ([1]; 4 h, 3 mg/kg ip, experiment e): 40%
Treatment Consumption ([1]; 4 h, 3 mg/kg ip, experiment e): 5.5 ± 0.60 g/4 Hrs
% Reduction in Consumption ([1]; 4 h, 10 mg/kg ip, experiment e): 56%
Treatment Consumption ([1]; 4 h, 10 mg/kg ip, experiment e): 4.1 ± 0.55 g/4 Hrs
% Reduction in Consumption ([1]; 4 h, 10 mg/kg po, experiment c): 28%
Treatment Consumption ([1]; 4 h, 10 mg/kg po, experiment c): 7.4 ± 0.64 g/4 Hrs
% Reduction in Consumption ([1]; 4 h, 30 mg/kg po, experiment c): 36%
Treatment Consumption ([1]; 4 h, 30 mg/kg po, experiment c): 6.6 ± 1.01 g/4 Hrs
% Reduction in Consumption ([1]; 24 h, 1 mg/kg ip, experiment b): 16%
Treatment Consumption ([1]; 24 h, 1 mg/kg ip, experiment b): 20.9 ± 0.78 g/24 Hrs
% Reduction in Consumption ([1]; 24 h, 1 mg/kg ip, experiment e): 18%
Treatment Consumption ([1]; 24 h, 1 mg/kg ip, experiment e): 23.6 ± 1.01 g/24 Hrs
Treatment Consumption ([1]; 24 h, 3 mg/kg ip, experiment a): 17.5 ± 1.38 g/24 Hrs
% Reduction in Consumption ([1]; 24 h, 3 mg/kg ip, experiment a, 3 mg/kg): 27%
% Reduction in Consumption ([1]; 24 h, 3 mg/kg ip, experiment a, listed as telenzepine, 3 mg/kg): 27%
Treatment Consumption ([1]; 24 h, 3 mg/kg ip, experiment b): 19.4 ± 0.94 g/24 Hrs
% Reduction in Consumption ([1]; 24 h, 3 mg/kg ip, experiment b, 3 mg/kg): 22%
% Reduction in Consumption ([1]; 24 h, 3 mg/kg ip, experiment b, listed as telenzepine, 3 mg/kg): 22%
% Reduction in Consumption ([1]; 24 h, 3 mg/kg ip, experiment e): 32%
Treatment Consumption ([1]; 24 h, 3 mg/kg ip, experiment e): 19.7 ± 0.95 g/24 Hrs
% Reduction in Consumption [1, 4]: 50%
Treatment Consumption [1, 4]: 14.5 ± 1.29 g/24 Hrs
% Reduction in Consumption [1, 5]: 39%
Treatment Consumption [1, 5]: 18.5 ± 2.33 g/24 Hrs
% Reduction in Consumption [1, 6]: 56%
Treatment Consumption [1, 6]: 13.3 ± 2.69 g/24 Hrs
effect on consumption ([1]; all doses tested (ip), given alone): significantly reduced consumption
Treatment: % Weight Gain ([2]; 0.3 mg/kg sc, experiment c): 4.4 ± 0.6%
% Reduction ([2]; 0.3 mg/kg sc, experiment c): −0.9%
Treatment: % Weight Gain ([2]; 1 mg/kg po, experiment d): 3.3 ± 0.6%
% Reduction ([2]; 1 mg/kg po, experiment d): −3.1%
reduction in body weight compared to vehicle treated rats ([2]; 3 mg/kg of telenzepine alone): 3.8%
Treatment: % Weight Gain ([2]; 3 mg/kg sc, experiment a): 1.5 ± 1.0%
% Reduction ([2]; 3 mg/kg sc, experiment a): −7.1%
Treatment: % Weight Gain ([2]; 3 mg/kg sc, experiment b): 4.3 ± 0.8%
% Reduction ([2]; 3 mg/kg sc, experiment b): −3.8%
GABA efflux [3]: reduced GABA efflux

Reference: US8748419B2, “Treating obesity with muscarinic receptor M1 antagonists” (priority 2006, dated 2014)
